Data on seven compounds can be found in patent US12023336B2, “Antiviral drug compounds and composition thereof” (priority 2018, dated 2024).

The test system of series [1] is CEM-GFP cells. In words: MTT cell viability assay in CEM-GFP cells. It is filed as cell-based. Conditions: concentration at which cell viability was 50%. On the procedure: (a-b) CEM-GFP cells were treated with different concentrations of MTX-HYD and MTX and cytotoxicity was determined by MTT cell viability assay. […] (c-d) CEM-GFP cells were infected with 0.5 MOI (Multiplicity of infection) of HIV-1NL4.3 virus in presence of MTX-HYD or MTX. 72-hours post infection supernatant was collected and virus production was determined by p24 antigen capture ELISA.
(§1) Cytotoxicity of MTX-HYD and MTX and their analogues was determined by MTT cell proliferation assay kit, (Roche, Germany) as described earlier. Briefly, cells were seeded at the density of 25,000 cells/well in 96 well plate containing 100 μL of RPMI. Molecules at different concentration was added to the media and incubated in humidified CO2 incubator. Untreated cells were taken as negative control and DMSO treated cells were taken as vehicle control. 48-hours post incubation, 10 μL of MTT (5 mg/mL) was added in each well in dark and incubated at 37° C. for the formation of formazan crystals. 4-hours post incubation, the crystals were dissolved using 100 μL isopropanol and the absorbance was read at 570 nm.
(In general: Formazan colour is commonly taken as a measure of viable cells.)

Series [2] has as its system HIV-1NL4.3. It is filed as cell-based. Conditions: for inhibition of replication of HIV-1NL4.3: CEM-GFP (FIG. 9); for TI (Therapeutic index = CC50/IC50) / therapeutic index compared with MTX-HYD / IC50: CEM-GFP cells; for therapeutic index compared with MTX-HYD: HIV-1NL4.3; for IC50: HIV-1NL4.3 0.5 MOI, p24 ELISA 72 h post infection. The procedure: Cells were then treated with molecules at different concentrations.
(In general: An ELISA detects its analyte on a solid surface through an enzyme-linked reagent.)

Series [3] relates to HIV-1NL4.3. On the procedure:
72-hours post infection supernatant was collected and virus production was determined by p24 antigen capture ELISA.
as §1
(§2) Cells were then treated with molecules at different concentrations. Untreated cells were taken as negative control and DMSO treated cells were taken as vehicle control.

Series [4] deals with different isolates of HIV-1. Description: Anti-HIV activity against different isolates of HIV-1 in CEM-GFP cells and hPBMCs, p24 ELISA. It is filed as cell-based. The procedure:
as §2

Series [5] in a line: MTT cytotoxicity in different cell types (CEM-GFP, Jurkat J6, U937, hPBMCs). Conditions: human; all the cell types tested (CEM-GFP, Jurkat J6, U937, hPBMCs). It is filed as cell-based. An excerpt: FIG. 2. depicts that MTX-HYD has similar cytotoxicity profile in different cell types. […] Untreated and DMSO treated cells were taken as controls.
Series [6] has as its target T1, HIV-1 reverse transcriptase (Human immunodeficiency virus type 1 group M subtype B, UniProt P04585).
T1 construct: recombinant HIV-1 reverse transcriptase enzyme; purchased Roche, Germany
In words: RNA dependent DNA polymerase activity assay of HIV-1 RT (RDDP assay). It is filed as biochemical. Particulars: 100 nM; cell free. The procedure:
(§3) MTX-HYD (100 nM) was tested on viral enzymes Reverse Transcriptase (a), Integrase (b) and Protease (c) in an in vitro cell free assay system. Nevirapine (NVP) (500 nM), Raltegravir (RLT) (1 μM), and Indinavir (IND) (500 nM) were used as the control inhibitors of RT, IN, and PR respectively. Untreated wells (UNT) were considered as negative controls. […] 72-hours post-infection virus production was determined in supernatant by p24 antigen capture ELISA (n=3).
Effect of MTX-HYD and MTX on RNA dependent DNA polymerase activity of HIV-1 RT enzyme was tested with HIV-1 reverse transcriptase colorimetric assay kit (Roche, Germany) according to manufacturer's protocol. Briefly, 0.5 ng of recombinant HIV-1 reverse transcriptase enzyme in reaction buffer in presence or absence of MTX-HYD were incubated at room temperature for 5-10 min. Nevirapine (500 nM) treated wells were taken as positive control whereas untreated wells were taken as negative control and DMSO treated wells were taken as vehicle control. The reaction mixture containing Poly rA/OligodT (template/primers) and biotin or digoxigenin labelled dUTP nucleotide mixture was added to initiate the reverse transcription at 37° C. for 12-16 hours. […] ABTS substrate was then added to observe the colour reaction, which was read at 405 nm.

In series [7] the target is T2, HIV-1 integrase (Human immunodeficiency virus type 1 group M subtype B, UniProt P04585).
T2 construct: HIV-1 integrase enzyme; purchased XpressBio, USA
Description: Cell free assay for HIV-1 Integrase activity. It is filed as biochemical. Particulars: 100 nM. On the procedure:
as §3
MTX-HYD was tested for its effect, if any, on HIV-1 Integrase enzyme using HIV-1 integrase assay kit (XpressBio, USA) according to manufacturer's protocol. Briefly, biotin coated 5′ Donor Strand (DS) was loaded on to streptavidin coated wells and incubated at 37° C. 30-minutes post incubation, wells were washed and unattached DS was removed. After washing, HIV-1 integrase enzyme and Transfer Strand (TS) were added to the wells in presence of MTX-HYD and incubated at 37° C. Raltegravir treated wells were taken as positive controls whereas untreated wells were taken as negative control and DMSO treated wells were taken as vehicle control. 30-minutes post incubation, wells were washed and 100 μL/well TMB substrate was added and incubated for […] at room temperature. 100 μL/well TMB stop solution was added and absorbance was measured at 450 nm.

In series [8] the test system is NF-kB pathway. Description: Immunoblotting of IkB phosphorylation and p65 in HIV-1NL4.3 infected CEM-GFP cells. It is filed as cell-based. Particulars: 100 nM, 24, 48, 72 h post infection.
Description: (a) CEM-GFP cells were infected with 0.5 MOI of HIV-1NL4.3 in presence or absence of MTX-HYD (100 nM). Cells were harvested at different time points (24 h, 48 h and 72 h) post-infection. Phosphorylation of IxB was analysed by immunoblotting. (c) CEM-GFP cells were infected with 0.5MOI of HIV-1NL4.3 in presence or absence of MTX-HYD (100 nM) and nuclear cytoplasmic fractions were prepared using NE-PER nuclear-cytoplasmic fractionation kit. p65 levels in both cytoplasm and nucleus were analyzed by immunoblotting. (b and d) Densitometric analysis of immunoblots using QuantityOne software (n=3).
The subject of series [9] is HIV-1NL4.3. In words: microbe, parasite or virus in culture. It is filed as cell-based. Particulars: Human immunodeficiency virus 1; 10 μM; HIV-1NL4.3 0.1 MOI; TZM-bl cells; luminescence 48 h; read-out: % Inhibition at 10 μM Concentration. On the procedure: TZM-bl cells were seeded at the density of 12,000-15,000 cells/well of 96 well plate with 100 μL DMEM (with 10% FBS) in each well. 12-hours post seeding, the media was replaced with fresh DMEM containing HTV-1NL4.3 at 0.1 MOI and cells were treated with different molecules independently at 10 μM working concentration. Cells were incubated in humidified CO2 incubator for 4-hours. After incubation, the media was replaced and cells were washed twice with incomplete DMEM and 100 μL of complete DMEM was added in each wells along with the molecules of interest and incubated at 37° C. in humidified CO2 incubator. 48-hours post incubation, the media was removed and cells were washed twice with 100 μL of 1×PBS. After washing, cells were lysed using cell culture lysis reagent and Steady-Glo substrate was added at 1:1 ration in each well. Luminescence was measured using Molecular Devices M5 (Table 2). % Inhibition was calculated using following formula and plotted.
[formula] (RLU=Relative Luminescence Unit)

In series [10] the target is T3, HIV-1 protease (Human immunodeficiency virus type 1 group M subtype B, UniProt P04585).
T3 construct: HIV-1 protease enzyme; purchased Biovision, USA
In words: Cell free assay for HIV-1 Protease activity. It is filed as biochemical. Conditions: 100 nM. The procedure:
as §3
Effect of MTX-HYD on HIV-1 Protease enzyme was determined using HIV-1 Protease Activity Assay Kit, Fluorometric (Biovision, USA) according to manufacturer's protocol. Briefly, in a single step reaction, HIV-1 protease enzyme was diluted in reaction buffer and 10 nmol/well was loaded in 96 well plate in presence or absence of MTX-HYD (100 nM). Indinavir (IND) (500 nM) treated wells were taken as positive control and untreated wells were considered as negative control. 15-minutes post addition, Fluorescence was measured using Molecular Devices M5 at Ex/Em=330/450 nm (FIG. 6).

Usually CC50 stands for the concentration at which the toxic effect on the cells reaches its halfway point. Low readings indicate harm at low concentration, high ones better tolerance by the cells. As usually defined, the IC50 is the concentration that inhibits the measured activity by half. `COC(=O)CC[C@H](NC(=O)c1ccc(N(C)Cc2cnc3nc(N)nc(N)c3n2)cc1)C(=O)OC` [MTX Dimethyl Ester] yielded a CC50 in series [1] of 54.3 ± 3.78 µM. Further, in series [2] (100 nM), the “inhibition of replication of HIV-1NL4.3” value was “inhibits replication of HIV-1NL4.3”. Also, in series [2], the “TI (Therapeutic index = CC50/IC50)” value is listed as 1675.3, the “therapeutic index compared with MTX-HYD” value is listed as “higher therapeutic index than MTX-HYD” and the half-inhibitory concentration (IC50) is 32.4 ± 0.87 nM.
`CN(Cc1cnc2nc(N)nc(N)c2n1)c1ccc(C(=O)N[C@@H](CCC(=O)N[C@@H](CCC(=O)N[C@@H](CCC(=O)N[C@@H](CCC(=O)N[C@@H](CCC(=O)N[C@@H](CCC(=O)N[C@@H](CCC(=O)O)C(=O)O)C(=O)O)C(=O)O)C(=O)O)C(=O)O)C(=O)O)C(=O)O)cc1` [MTX heptaglutamate] showed a CC50 in series [1] of 39.9 ± 1 µM. Moreover, in [2], the “TI (Therapeutic index = CC50/IC50)” value was determined as 541.87 and half-maximal inhibition (IC50) was put at 73.7 ± 1.65 nM.
The compound `COC(=O)CCC(NC(=O)c1ccc(N(C)Cc2cnc3nc(N)nc(N)c3n2)cc1)C(=O)OC` (stereo not drawn) [MTX-methyl-d3-Dimethyl Ester, Methotrexate-methyl-d3-Dimethyl ester] registered a cytotoxic concentration (CC50) in [1] of 47.3 ± 1.51 µM. Also, in series [2], the IC50 was determined as 9.9 ± 1.51 nM.
On to `[2H]C([2H])([2H])N(Cc1cnc2nc(N)nc(N)c2n1)c1ccc(C(=O)NC(CCC(=O)OC)C(=O)OC)cc1` (stereo not drawn) [MTX-methyl-d3-Dimethyl Ester, Methotrexate-methyl-d3-Dimethyl ester], for which the “therapeutic index (TI) in hPBMCs” value in series [3] (HIV-1NL4.3 0.5 MOI) is recorded as “significantly high therapeutic index (TI)”. Besides, the “inhibition of HIV-1NL4.3 replication in primary cells” value in [3] (hPBMCs) is listed as “with high efficiency”. For the same compound, the “inhibition of replication of HIV-1NL4.3” value in [2] (100 nM) was “inhibits replication of HIV-1NL4.3”. In addition, in [2], the “TI (Therapeutic index = CC50/IC50)” value was 4781.81 and the “therapeutic index compared with MTX-HYD” value is reported as “higher therapeutic index than MTX-HYD”. The “anti-HIV activity across virus isolates” value in [4] (25 nM, 0.5 MOI of different isolates) was “not virus isolate specific phenomena”. Besides, the “Therapeutic Index compared with MTX-HYD, other virus isolates” value in [4] (HIV-1IndieC, HIV-1IIIB, HIV-1ADA, HIV-189.6) is reported as “higher Therapeutic Index (TI) than Methotrexate Hydrate (MTX-HYD)”.
The compound `CN(Cc1cnc2nc(N)nc(N)c2n1)c1ccc(C(=O)N[C@@H](CCC(=O)O)C(=O)O)cc1` [MTX-methyl-d3] showed a CC50 in series [1] of 46.4 ± 1.08 µM. Also, the IC50 in series [2] was 42.1 ± 3.84 nM.
As to `CN(Cc1cnc2nc(N)nc(N)c2n1)c1ccc(C(=O)N[C@@H](CCC(=O)O)C(=O)O)cc1` [Methotrexate Hydrate], in [5], the CC50 at 48 h was in the range of 50 to 75 µM. Also, the “effect on Reverse Transcriptase” value in series [6] was “does not target viral enzymes”. Also, in [7], the “effect on Integrase” value is given as “does not target viral enzymes”. Moreover, the “stage of virus life cycle at which it acts” value in [2] (100 nM, treated at different stages of virus infection, CEM-GFP) is listed as “works at an early stage of the life cycle”. Besides, the “anti-HIV potential better than MTX” value in series [2] (versus MTX (FIG. 1)) was around 10 fold. For the same compound, in series [4] (0.5 MOI of different isolates, 0.01, 0.1 and 1 MOI of HIV-1NL4.3), the “anti-HIV activity across virus isolates and viral loads” value was “not virus isolate and viral load dependent phenomena”. The IkB phosphorylation result in series [8] was “may inhibit IkB phosphorylation”. Moreover, the inhibition at 10 µM in [9] amounted to 98.5%. Further, the “effect on Protease” value in [10] is “does not target viral enzymes”.
Consider MTX-d3 heptaglutamate, for which, in [1], the CC50 was determined as 40.5 ± 3.43 µM. 77.8 ± 2.42 nM corresponded to half-maximal inhibition in series [2] (IC50).
